The target of one experiment is T1, STAT6 (Homo sapiens, UniProt P42226).
T1 construct: endogenous in cells; host or cells: MOLM-16, KU-812, SKNO1, MB231, L1236
T1 sequence (P42226 1-847): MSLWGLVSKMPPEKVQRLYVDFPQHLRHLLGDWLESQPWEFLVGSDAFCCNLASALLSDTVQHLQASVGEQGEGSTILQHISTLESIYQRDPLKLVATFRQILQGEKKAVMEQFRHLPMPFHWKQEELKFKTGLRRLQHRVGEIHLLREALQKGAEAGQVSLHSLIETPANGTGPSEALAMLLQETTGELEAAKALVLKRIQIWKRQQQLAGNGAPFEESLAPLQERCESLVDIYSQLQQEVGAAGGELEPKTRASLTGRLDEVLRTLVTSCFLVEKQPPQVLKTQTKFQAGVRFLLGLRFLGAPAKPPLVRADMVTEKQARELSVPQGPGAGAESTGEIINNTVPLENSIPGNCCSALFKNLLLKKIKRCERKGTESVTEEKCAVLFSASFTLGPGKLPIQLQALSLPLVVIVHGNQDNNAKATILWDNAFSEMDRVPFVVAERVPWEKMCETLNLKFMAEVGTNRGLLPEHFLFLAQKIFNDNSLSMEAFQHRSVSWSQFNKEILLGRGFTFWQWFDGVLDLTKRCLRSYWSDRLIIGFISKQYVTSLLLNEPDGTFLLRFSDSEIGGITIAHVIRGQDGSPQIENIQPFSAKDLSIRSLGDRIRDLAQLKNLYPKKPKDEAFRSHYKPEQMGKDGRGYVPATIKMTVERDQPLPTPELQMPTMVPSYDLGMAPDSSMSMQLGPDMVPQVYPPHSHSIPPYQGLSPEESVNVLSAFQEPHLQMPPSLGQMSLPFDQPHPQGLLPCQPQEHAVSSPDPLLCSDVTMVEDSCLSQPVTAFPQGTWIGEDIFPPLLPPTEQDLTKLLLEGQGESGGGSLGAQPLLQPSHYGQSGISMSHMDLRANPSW
Kind of experiment: Immunoblotting (Western blot) analysis of STAT6 degradation efficiency of degraders in treated cells. Type of experiment: cell-based. In outline:
(§1)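 About 1 million cells per point, grown in 10% FBS medium at 37 °C/5% CO2, were exposed to compound at the indicated concentrations and times, then lysed in RIPA buffer with protease and phosphatase inhibitors. Equal protein (20-40 μg) was resolved by SDS-PAGE, blotted to PVDF, and probed with anti-STAT5, anti-STAT6 and anti-GAPDH antibodies.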

Another experiment deals with STAT5. The experiment can be described thus: Immunoblotting (Western blot) analysis of STAT5 degradation efficiency of degraders in treated cells. Type of experiment: cell-based. In outline:
as §1
On the technique in general: In western blotting, separated proteins are transferred to a membrane and probed.

[1] abbreviates: KU-812 cells, read-out: DC50 S6 KU-812.
Where [2] appears, read: KU-812 cells, read-out: DC50 S5 KU-812.

Results on two compounds are retold here after US20230295197A1, “STAT5 and STAT6 Degraders and Uses Thereof” (REGENTS OF THE UNIVERSITY OF MICHICAN, priority 2022, published 2023).

By DC50 is commonly meant the concentration giving 50% degradation.

Read-outs that look alike come from different tables or passages of the source.

Consider `CN(CCCC#Cc1cccc2c1CN(C1CCC(=O)NC1=O)C2=O)C(=O)CCN(C(=O)[C@@H]1CCCN1C(=O)[C@@H](NC(=O)c1cc2cc(C(F)(F)P(=O)(O)O)ccc2s1)C(C)(C)C)c1ccc(-c2nccs2)cc1` (stereo partly drawn) [Compound 681, ((2-(((2S)-1-((2S)-2-((3-((5-(2-(2,6-Dioxopiperidin-3-yl)-1-oxoisoindolin-4-yl)pent-4-yn-1-yl)(methyl)amino)-3-oxopropyl)(4-(thiazol-2-yl)phenyl)carbamoyl)pyrrolidin-1-yl)-3,3-dimethyl-1-oxobutan-2-yl)carbamoyl)benzo[b]thiophen-5-yl)difluoromethyl)phosphonic acid], for which the DC50 was above 10 µM on STAT6 (setting [1]); above 10 µM on STAT6 (MOLM-16 cells, class symbols, read-out: DC50 S6 MOLM-16); above 10 µM at STAT6 (SKNO1 cells, read-out: DC50 S6 SKNO1); 0.1 to 1 µM with STAT5 (setting [2]); below 0.1 µM in the experiment on STAT5 (MOLM-16 cells, class symbols, read-out: DC50 S5 MOLM-16); 0.1 to 1 µM with STAT5 (SKNO1 cells, read-out: DC50 S5 SKNO1).
In the case of `CC(C)(C)[C@H](NC(=O)c1cc2cc(C(F)(F)P(=O)(O)O)ccc2s1)C(=O)N1CCC[C@H]1C(=O)N(CCC(=O)NCCCCC#Cc1cccc2c1CN(C1CCC(=O)NC1=O)C2=O)c1ccc(Br)cc1` (stereo partly drawn) [Compound 686, ((2-(((2S)-1-((2S)-2-((4-bromophenyl)(3-((6-(2-(2,6-dioxopiperidin-3-yl)-1-oxoisoindolin-4-yl)hex-5-yn-1-yl)amino)-3-oxopropyl)carbamoyl)pyrrolidin-1-yl)-3,3-dimethyl-1-oxobutan-2-yl)carbamoyl)benzo[b]thiophen-5-yl)difluoromethyl)phosphonic acid], the DC50 at STAT6 (setting [1]) is above 10 µM; with STAT5 (setting [2]), 0.1 to 1 µM.
